Experiments:
[1] = test system: LC3B and SQSTM1/p62; assay: Immunoblot of LC3B and SQSTM1/p62 in GBM cells (U87MG and U373MG); assay type: cell-based, human
Procedure: FIGS. 2A and 2B show the results that an extract of Platycodon grandiflorum (PG) increases the levels of LC3-II and p62. […] GAPDH was used as a loading control.
FIGS. 3A to 3C show the results that PD inhibits autophagic flux in GBM cells. […] The expression of LC3B and SQSTM1 was confirmed by immunoblot analysis. […] GAPDH was used as a loading control.
The human glioma cell lines, U87MG and U373MG, were cultured respectively in RPMI-1640 (Welgene) and DMEM (Welgene, Daegu, Korea) supplemented with 10% fetal bovine serum (FBS, JR Scientific) and 1% antibiotics (Ab, Welgene). All cultures were maintained at 37° C. in a humidified incubator containing 5% CO2.
(§1) Cells treated with the concentrations and materials described in FIGS. 1-3B, 7, 8, 10, 13, 16, 18, and 20 were lysed in buffer containing 20 mM Tris-HCl (pH 7.5), 150 mM NaCl, 1 mM EDTA, 1 mM Na2EDTA, 1 mM EGTA, 1% NP-40, 1% sodium deoxycholate, 1 mM Na3VO4, 1 mM MPI, 1 mM PMSF, and PI cocktails for 15 to 20 minutes on ice. Cell lysates were separated by SDS-PAGE and transferred to nitrocellulose membranes. Immunodetection was performed with the following primary antibodies: rabbit anti-LC3B, rabbit anti-cathepsin B, rabbit-anti GAPDH (Cell Signaling Technology, Danvers, Mass.), mouse anti-SQSTM1/p62, and goat anti-cathepsin D (Santa CruzKPL, Gaithersburg, Md., USA) were incubated at room temperature for 1 hour. The protein bands were detected with ECL western Blotting Substrate (Thermo Fisher Scientific, Waltham, Mass., USA).

[2] = test system: U87MG and U373MG cells; assay: LysoTracker assay with GFP-LC3B (autophagosome-lysosome fusion) in GBM cells; assay type: cell-based, human; details: PD 10 μM, 24 hours
From the text: […] Then, cells were stained with LysoTracker (red) and DAPI (blue). The merged images show an overlap between GFP-LC3 and LysoTracker (yellow). The panels on the right are higher-magnification images of the boxed regions.
Cultured cells seeded in plates with microscope coverslips were transfected with a pGFP-LC3B plasmid using Lipofectamine 3000 (Thermo Fisher Scientific) according to the manufacturer's instructions. After the transfection, the cells were fixed with 4% paraformaldehyde (PFA) in phosphate-buffered saline (PBS) at room temperature for 10 minutes. The images were examined under a laser confocal microscope (Zeiss, Oberkochen, Baden-Wurttemberg, Germany).
To stain acidic compartments, 50 nM LysoTrackerRedDND-99 (Thermo Fisher Scientific) was added to a medium at 37° C. with 5% CO2 for 30 minutes prior to fixation. The nuclei were labeled with 4,6-diamidino-2-phenylindole (DAPI, Sigma). The slides were finally mounted using a Faramount mounting medium (Dako, Glostrup, Denmark). The images were examined under a Zeiss laser confocal microscope.
Experimental Result 11. PD Blocks Fusion of Autophagosomes with Lysosomes. Since p62 was accumulated in autophagosomes by PD treatment, it was speculated that PD may cause the lysosomal dysfunction like bafilomycin A1, which inhibits vacuolar H^+-ATPase (V-ATPase)-dependent lysosomal acidification and blocks autophagosome-lysosome fusion. Thus, the PD-treated cells with LysoTracker Red, which is a marker for acidic compartment including lysosomes was stained to examine the colocalization of GFP-LC3B.

[3] = test system: U87MG and U373MG cells; assay: BODIPY FL LDL uptake assay, GBM cells; assay type: cell-based, human; details: PD 10 μM 24 hours, BODIPY FL LDL 1 hour
Procedure: Cells were treated with DMSO, PD (10 μM), or U18 (1 μM) for 24 hours and subsequently loaded with BODIPY™ FL LDL. BODIPY-LDL uptake was visualized by confocal microscopy. Nuclei were stained with DAPI (blue). Quantification shown on the right graph represents a relative fold change from three independent experiments±SD.
Cells seeded on coverslips were treated with the materials and then the culture medium was replaced with BODIPY™ FL LDL (Thermo Fisher Scientific) at a working concentration of 5 μg/mL in a medium. The cells were additionally incubated at 37° C. for 1 hour. The degree of LDL uptake was measured using a Zeiss laser confocal microscope.
Based on the previous study results of the present inventors that PD increases cell surface LDLR expression and accumulate cholesterol within lysosomes, whether PD can increase the uptake of exogenous LDL was examined Cells pretreated with PD or U18666A were incubated with BODIPY FL-labeled LDL particles for 1 hour and the LDL uptake was observed by a confocal microscope. Upon analysis of these cells, it was observed that PD caused about a 6-fold increase in LDL uptake and it was a level similar to that detected in the U18666A-treated cells.

[4] = test system: LDLR; assay: Immunoblot of LDLR in U87MG, U373MG cells and normal astrocytes; assay type: cell-based, human; details: 24 hours
Procedure: FIGS. 16A to 16D show the results that PD increases the expression of LDLR on cell surfaces in GBM cells. […] GAPDH was used as a loading control. […] GAPDH was used as a loading control.
as §1
Brain is the most cholesterol-rich organ of the body, containing about 20% of total body cholesterol. […] As can be confirmed in FIG. 16A, in consistent with these reports, the LDLR protein level was markedly elevated in U87MG and U373MG cells relative to normal human astrocytes. […] Then, the cell surface expression of LDLR was confirmed by flow cytometry.

[5] = test system: normal human astrocytes; assay: WST1 cell viability assay, normal astrocytes; assay type: cell-based; details: normal human astrocytes vs GBM cells, 48 hours
Procedure: FIGS. 6A and 6B show the results that PD induces a decrease in cell viability and vacuole formation. […] Data shown represent the means of quintuplicate measurements which were repeated three times. The results are presented as a percentage of control (means±SD).
Cell cytotoxicity was assessed by WST1 assay. U87 and U373 cells were each seeded in a 96-well plate (5×10^3 cells/well) and treated with different concentrations of platycodin D (PD). Then, cells were incubated with a WST1 reagent (Dogen, Seoul, Korea) for 2 hours before reading the plate. Absorbance was measured at 450 nm using an ELISA reader (Versa Max, Molecular Devices, Sunnyvale, Calif., USA).
Inhibition of autophagy has been reported to cause cancer cell death. Therefore, the cytotoxic effects of PD on U87MG, U373MG, and normal astrocytes were examined. After treating these cells with various doses of PD for 48 hours, their cell viability was analyzed by WST1 assays. […] As can be confirmed in FIG. 6B, morphological changes were also visualized by an optical microscope after exposure of GBM cells to 10 μM PD for 24 hours.

Compound: C[C@@H]1O[C@@H](O[C@H]2[C@H](OC(=O)[C@]34CCC(C)(C)C[C@H]3C3=CC[C@@H]5[C@@]6(C)C[C@H](O)[C@H](O[C@@H]7O[C@H](CO)[C@@H](O)[C@H](O)[C@H]7O)C(CO)(CO)[C@@H]6CC[C@@]5(C)[C@]3(C)C[C@H]4O)OC[C@H](O)[C@@H]2O)[C@H](O)[C@H](O)[C@H]1O[C@@H]1OC[C@@H](O)[C@H](O[C@@H]2OC[C@](O)(CO)[C@H]2O)[C@H]1O [PD, platycodin D]
- LC3B-II and p62 levels over time ([1]; 10 μM PD, 3 hours to 24 hours): time-dependent increases
- LC3B-II and p62 levels ([1]; PD 0 μM to 10 μM, 24 hours): dose-dependent increases
- concentration of maximum activity (LC3B-II and p62 levels) ([1]; PD 0 μM to 10 μM, 24 hours): 10 µM
- lysosomal acidification (LysoTracker Red fluorescence) [2]: does not affect lysosomal acidification
- colocalization of GFP-LC3B and LysoTracker Red staining ([2]; BafA1 100 nM, Rapa 1 μM): significant separation
- increase in LDL uptake [3]: ~6 fold
- LDLR expression ([4]; PD 5 μM and 10 μM or U18666a 1 μM, U87MG, U373MG and normal astrocytes): significantly increased
- degree of LDLR expression, GBM cells vs normal astrocytes ([4]; PD 5 μM and 10 μM): more prominent in GBM cells than in normal astrocytes
- PD-mediated reduction in cell viability [5]: less effective
